In the supplement of paper PMC10307832:

Assays:
Assay in all cases: relative viability (nuclei count vs DMSO), 5 days (fraction); higher = more cells survive
XMD13-2 + Navitoclax = compound: C1CC1C(=O)NC2=NNC3=C2C=CC(=C3)C4=CC(=CC=C4)C(=O)NC5CC5 [XMD13-2] + CC1(C)CCC(c2ccc(Cl)cc2)=C(CN2CCN(c3ccc(C(=O)NS(=O)(=O)c4ccc(N[C@H](CCN5CCOCC5)CSc5ccccc5)c(S(=O)(=O)C(F)(F)F)c4)cc3)CC2)C1 [Navitoclax] (partner 0.5 µM)
Summary of the method: (§1)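 Lung cancer cell lines were seeded in 1536-well plates and dosed by pin tool the next day, with either a single drug or a fixed anchor-drug dose combined with five library-drug doses (not always all listed) spaced in √10 steps. Five days later, one step fixed the cells and stained their nuclei (final 0.05% Triton X-100, 1% formaldehyde, 1 ug/ml Hoechst), and nuclei were counted on 4× images. Relative viability is the nuclei count in treated wells divided by the count in vehicle wells, and each value is the median of duplicate plates.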

XMD13-2 + Phenformin = compound: C1CC1C(=O)NC2=NNC3=C2C=CC(=C3)C4=CC(=CC=C4)C(=O)NC5CC5 [XMD13-2] + N=C(N)NC(=N)NCCc1ccccc1 [Phenformin] (partner 250 µM)
Summary of the method: as §1

ALW-II-49-7 + Phenformin = compound: Cc1ccc(C(=O)Nc2cccc(C(F)(F)F)c2)cc1Nc1cncc(C(N)=O)c1 [ALW-II-49-7] + N=C(N)NC(=N)NCCc1ccccc1 [Phenformin] (partner 250 µM)
Summary of the method: as §1

Dasatinib + Pemetrexed = compound: Cc1nc(Nc2ncc(C(=O)Nc3c(C)cccc3Cl)s2)cc(N2CCN(CCO)CC2)n1 [Dasatinib] + Nc1nc2[nH]cc(CCc3ccc(C(=O)N[C@@H](CCC(=O)O)C(=O)O)cc3)c2c(=O)[nH]1 [Pemetrexed] (partner 0.2 µM)
Summary of the method: as §1

Cell Line | relative viability (XMD13-2 + Navitoclax; first compound 0.05 µM) | relative viability (XMD13-2 + Navitoclax; first compound 0.1581 µM) | relative viability (XMD13-2 + Navitoclax; first compound 0.5 µM) | relative viability (XMD13-2 + Navitoclax; first compound 1.581 µM) | relative viability (XMD13-2 + Navitoclax; first compound 5 µM) | relative viability (XMD13-2 + Phenformin; first compound 0.05 µM) | relative viability (XMD13-2 + Phenformin; first compound 0.1581 µM) | relative viability (XMD13-2 + Phenformin; first compound 0.5 µM) | relative viability (XMD13-2 + Phenformin; first compound 1.581 µM) | relative viability (XMD13-2 + Phenformin; first compound 5 µM) | relative viability (ALW-II-49-7 + Phenformin; first compound 0.08 µM) | relative viability (ALW-II-49-7 + Phenformin; first compound 0.253 µM) | relative viability (ALW-II-49-7 + Phenformin; first compound 0.8 µM) | relative viability (ALW-II-49-7 + Phenformin; first compound 2.53 µM) | relative viability (ALW-II-49-7 + Phenformin; first compound 8 µM) | relative viability (Dasatinib + Pemetrexed; first compound 0.005 µM) | relative viability (Dasatinib + Pemetrexed; first compound 0.01581 µM) | relative viability (Dasatinib + Pemetrexed; first compound 0.05 µM) | relative viability (Dasatinib + Pemetrexed; first compound 0.1581 µM) | relative viability (Dasatinib + Pemetrexed; first compound 0.5 µM)
NCI-H2347 | 0.726 | 0.827 | 0.919 | 0.786 | 0.981 | 0.615 | 0.507 | 0.404 | 0.26 | 0.51 | 0.455 | 0.334 | 0.329 | 0.26 | 0.297 | 0.375 | 0.38 | 0.342 | 0.253 | 0.259
NCI-H2405 | 0.871 | 0.727 | 0.9 | 0.767 | 0.916 | 0.436 | 0.417 | 0.411 | 0.397 | 0.438 | 0.389 | 0.411 | 0.343 | 0.351 | 0.358 | 0.852 | 0.65 | 0.422 | 0.229 | 0.22
NCI-H3122 | 0.996 | 1.02 | 1.02 | 1.01 | 1.01 | 0.612 | 0.37 | 0.4 | 0.374 | 0.353 | 0.394 | 0.366 | 0.381 | – | 0.302 | 0.208 | 0.205 | 0.194 | 0.198 | 0.186
PC-3 [JPC-3] | 0.819 | 0.843 | 0.827 | 0.781 | 0.693 | 0.5 | 0.49 | 0.48 | 0.523 | 0.54 | 0.486 | 0.461 | 0.456 | 0.448 | 0.452 | 1.22 | 1.1 | 1.08 | 0.717 | 0.474
PC-14 | 0.972 | 1.1 | 0.999 | 0.973 | 1 | 0.635 | 0.794 | 0.556 | 0.478 | 0.838 | 0.562 | 0.637 | 0.528 | 0.406 | 0.546 | 0.146 | 0.121 | 0.108 | 0.119 | 0.124
RERF-LC-KJ | 1.14 | 1.03 | 0.674 | 1 | 0.733 | 0.5 | 0.435 | 0.446 | 0.407 | 0.396 | 0.419 | 0.456 | 0.414 | 0.373 | 0.397 | 0.53 | 0.466 | 0.405 | 0.471 | 0.457
SK-LU-1 | 0.915 | 0.832 | 0.664 | 0.803 | 0.82 | 0.609 | 0.528 | 0.594 | 0.592 | 0.525 | 0.445 | 0.583 | 0.519 | 0.445 | 0.435 | 0.864 | 0.617 | 0.467 | 0.306 | 0.282
SK-MES-1 | 1.26 | 1.32 | 1.21 | 1.24 | 1.2 | 0.699 | 0.657 | 0.696 | 0.598 | 0.644 | 0.644 | 0.637 | 0.625 | 0.577 | 0.512 | 0.985 | 0.879 | 0.709 | 0.314 | 0.224
SW 1573 | 1.54 | 1.27 | 0.94 | 0.876 | 0.88 | 0.443 | 0.385 | 0.384 | 0.26 | 0.24 | 0.347 | 0.385 | 0.374 | 0.479 | 0.398 | 0.889 | – | 0.742 | 0.607 | 0.548
